Patent US8759334B2, “Compounds useful for the treatment of metabolic and inflammatory diseases” (Galapagos NV, priority 2011, dated 2014)

How the values were obtained:
GPR43 [1] = target: T1, GPR43 (Homo sapiens, UniProt O15552); test: Calcium mobilization assay with probenecid; assay type: cell-based; details: GPR43 stably expressing cells; triggered with sodium acetate at EC80; 2.5 mM probenecid; read-out: GPR43 assay with probenicid IC50
T1 construct: expressed in transfected cells
T1 sequence (O15552 1-330): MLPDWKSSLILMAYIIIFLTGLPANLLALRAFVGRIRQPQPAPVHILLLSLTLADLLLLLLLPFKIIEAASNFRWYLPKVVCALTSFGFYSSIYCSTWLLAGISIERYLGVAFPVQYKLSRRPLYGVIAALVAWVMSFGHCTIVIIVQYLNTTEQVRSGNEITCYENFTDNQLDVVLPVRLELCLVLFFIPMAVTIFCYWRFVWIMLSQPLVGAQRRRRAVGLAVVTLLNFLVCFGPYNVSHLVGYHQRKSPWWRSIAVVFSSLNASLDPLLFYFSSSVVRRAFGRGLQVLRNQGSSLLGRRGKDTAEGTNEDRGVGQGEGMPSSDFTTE
How it was run: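 Cells stably expressing GPR43 plated overnight at 37 °C, then loaded 2 h with Calcium 4 dye plus 2.5 mM probenecid. […]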

GPR43 [2] = target: T1, GPR43; test: Calcium mobilization assay without probenecid; assay type: cell-based; details: GPR43 stably expressing cells, triggered with sodium acetate at EC80, read-out: GPR43 assay without probenicid IC50
Protocol: The following assay can be used for determination of GPR43 activation. The assay measures intracellular calcium release induced by activation of GPR43. On day 1, GPR43 stably expressing cells were detached with mild trypsinization (Trypsin, 0.25% with EDTA 4Na, 5× diluted in PBS) centrifuged at 1000 rpm for 5 min and resuspended at 6.000 cells/25 μL medium (DMEM supplemented with 10% FBS, 10 μg/mL puromycin and 1% Pen/Strep). The cells were distributed in poly-D-lysine coated 384 well plates (black with clear bottom, 25 μL/well) and incubated overnight at 37° C. 10% CO2. On day 2, 25 μL of a fluorescent Ca^2+ indicator (Calcium 4 assay; Molecular Devices) was added on top of the cells and incubated for 2 h at 37° C. Subsequently, compounds at increasing concentration (10 μL/well) were added to the plate and incubated for 15 min at 37° C. Finally the cells were triggered with sodium acetate at EC80 concentration (concentration which gives 80% of the activity of the GPR43) and the Ca-flux was measured simultaneously to the trigger injection on a fluorescence plate reader (FlexStation3), this measures the antagonist activity of the compounds. To measure agonist activity of the compounds, compound was added to the well and the Ca-flux was measured simultaneously to the injection of compound.

IC50 (GPR43 [1]) [nM] | IC50 (GPR43 [2]) [nM] | SMILES
> 1000 | > 1000 | CN(Cc1ccc(Cl)cc1)C(=O)C1(C)CCN1C(=O)Cc1ccccc1Cl (stereo not drawn) [Compound 9, 1-[2-(2-Chloro-phenyl)-acetyl]-2-methyl-azetidine-2-carboxylic acid (4-chloro-benzyl)-methyl-amide]
> 1000 | > 1000 | CN(Cc1ccc(Cl)cc1)C(=O)C1(C)CCN1C(=O)Cc1cccc(Cl)c1 (stereo not drawn) [Compound 10, 1-[2-(3-Chloro-phenyl)-acetyl]-2-methyl-azetidine-2-carboxylic acid (4-chloro-benzyl)-methyl-amide]
> 1000 | > 1000 | CN(Cc1ccc(Cl)cc1)C(=O)C1(C)CCN1C(=O)Cc1ccc(Cl)cc1 (stereo not drawn) [Compound 11]
> 1000 | > 1000 | CN(Cc1ccc(Cl)cc1)C(=O)C1(C)CCN1C(=O)Cc1ccc(F)c(F)c1 (stereo not drawn) [Compound 12, 1-[2-(3,4-Difluoro-phenyl)-acetyl]-2-methyl-azetidine-2-carboxylic acid (4-chloro-benzyl)-methyl-amide]
> 1000 | > 1000 | CN(Cc1ccc(Cl)cc1)C(=O)C1(C)CCN1C(=O)Cc1ccc(-c2ccc(F)cc2)cc1 (stereo not drawn) [Compound 15, 1-[2-(4′-Fluoro-biphenyl-4-yl)-acetyl]-2-methyl-azetidine-2-carboxylic acid (4-chloro-benzyl)-methyl-amide]
> 1000 | > 1000 | CN(Cc1ccc(Cl)cc1)C(=O)C1(C)CCN1C(=O)Cc1ccccc1OCc1ccccc1 (stereo not drawn) [Compound 16, 1-[2-(2-Benzyloxy-phenyl)-acetyl]-2-methyl-azetidine-2-carboxylic acid (4-chloro-benzyl)-methyl-amide]
> 1000 | > 1000 | CN(Cc1ccc(Cl)cc1)C(=O)C1(C)CCN1C(=O)Cc1ccccc1I (stereo not drawn) [Compound 17, 1-[2-(2-Iodo-phenyl)-acetyl]-2-methyl-azetidine-2-carboxylic acid (4-chloro-benzyl)-methyl-amide]
> 1000 | > 1000 | CN(Cc1ccc(Cl)cc1)C(=O)C1(C)CCN1C(=O)Cc1ccc(Cl)c(Cl)c1 (stereo not drawn) [Compound 18, 1-[2-(3,4-Dichloro-phenyl)-acetyl]-2-methyl-azetidine-2-carboxylic acid (4-chloro-benzyl)-methyl-amide]
> 1000 | > 1000 | CN(Cc1ccc(Cl)cc1)C(=O)C1(C)CCN1C(=O)Cc1ccc(-c2ccccc2)cc1 (stereo not drawn) [Compound 20, 1-(2-Biphenyl-4-yl-acetyl)-2-methyl-azetidine-2-carboxylic acid (4-chloro-benzyl)-methyl-amide]
> 1000 | > 1000 | CN(Cc1ccc(Cl)cc1)C(=O)C1(C)CCN1C(=O)Cc1ccc(-c2cccc(Cl)c2)cc1 (stereo not drawn) [Compound 21, 1-[2-(3′-Chloro-biphenyl-4-yl)-acetyl]-2-methyl-azetidine-2-carboxylic acid (4-chloro-benzyl)-methyl-amide]
> 1000 | > 1000 | CN(Cc1ccc(Cl)cc1)C(=O)C1(C)CCN1C(=O)Cc1ccc(-c2cccc(C#N)c2)cc1 (stereo not drawn) [Compound 22, 1-[2-(3′-Cyano-biphenyl-4-yl)-acetyl]-2-methyl-azetidine-2-carboxylic acid (4-chloro-benzyl)-methyl-amide]
> 1000 | > 1000 | COc1ccc(-c2ccc(CC(=O)N3CCC3(C)C(=O)N(C)Cc3ccc(Cl)cc3)cc2)cc1 (stereo not drawn) [Compound 23, 1-[2-(4′-Methoxy-biphenyl-4-yl)-acetyl]-2-methyl-azetidine-2-carboxylic acid (4-chloro-benzyl)-methyl-amide]
> 1000 | > 1000 | CN(Cc1ccc(Cl)cc1)C(=O)C1(C)CCN1C(=O)Cc1ccc(-c2ccc(C#N)cc2)cc1 (stereo not drawn) [Compound 24, 1-[2-(4′-Cyano-biphenyl-4-yl)-acetyl]-2-methyl-azetidine-2-carboxylic acid (4-chloro-benzyl)-methyl-amide]
> 1000 | > 1000 | Cc1ccccc1-c1ccc(CC(=O)N2CCC2(C)C(=O)N(C)Cc2ccc(Cl)cc2)cc1 (stereo not drawn) [Compound 25, 2-Methyl-1-[2-(2′-methyl-biphenyl-4-yl)-acetyl]-azetidine-2-carboxylic acid (4-chloro-benzyl)-methyl-amide]
> 1000 | > 1000 | COC(=O)c1cccc(-c2ccc(CC(=O)N3CCC3(C)C(=O)N(C)Cc3ccc(Cl)cc3)cc2)c1 (stereo not drawn) [Compound 26, methyl 4′-(2-(2-((4-chlorobenzyl)(methyl)carbamoyl)-2-methylazetidin-1-yl)-2-oxoethyl)biphenyl-3-carboxylate]
> 1000 | > 1000 | CN(Cc1ccc(Cl)cc1)C(=O)C1(C)CCN1C(=O)Cc1cccc(-c2ccccc2)c1 (stereo not drawn) [Compound 27, 1-(2-Biphenyl-3-yl-acetyl)-2-methyl-azetidine-2-carboxylic acid (4-chloro-benzyl)-methyl-amide]
> 1000 | > 1000 | CN(Cc1ccc(Cl)cc1)C(=O)C1(C)CCN1C(=O)Cc1cccc(-c2ccccc2C(F)(F)F)c1 (stereo not drawn) [Compound 28, 2-Methyl-1-[2-(2′-trifluoromethyl-biphenyl-3-yl)-acetyl]-azetidine-2-carboxylic acid (4-chloro-benzyl)-methyl-amide]
> 1000 | > 1000 | CN(Cc1ccc(Cl)cc1)C(=O)C1(C)CCN1C(=O)Cc1cccc(-c2cccc(Cl)c2)c1 (stereo not drawn) [Compound 29, 1-[2-(3′-Chloro-biphenyl-3-yl)-acetyl]-2-methyl-azetidine-2-carboxylic acid (4-chloro-benzyl)-methyl-amide]
> 1000 | > 1000 | Cc1cc(C)cc(CC(=O)N2CCC2(C)C(=O)N(C)Cc2ccc(Br)cc2)c1 (stereo not drawn) [Compound 30, 1-[2-(3,5-Dimethyl-phenyl)-acetyl]-2-methyl-azetidine-2-carboxylic acid (4-bromo-benzyl)-methyl-amide]
> 1000 | 501 to 1000 | Cc1cc(C)cc(CC(=O)N2CCC2(C)C(=O)N(C)Cc2ccc(C(C)C)cc2)c1 (stereo not drawn) [Compound 31, 1-[2-(3,5-Dimethyl-phenyl)-acetyl]-2-methyl-azetidine-2-carboxylic acid (4-isopropyl-benzyl)-methyl-amide]
> 1000 | > 1000 | Cc1cc(C)cc(CC(=O)N2CCC2(C)C(=O)N(C)Cc2ccc(C(C)(C)C)cc2)c1 (stereo not drawn) [Compound 32, 1-[2-(3,5-Dimethyl-phenyl)-acetyl]-2-methyl-azetidine-2-carboxylic acid (4-tert-butyl-benzyl)-methyl-amide]
> 1000 | 501 to 1000 | Cc1cc(C)cc(CC(=O)N2CCC2(C)C(=O)N(C)Cc2ccc(C)cc2C)c1 (stereo not drawn) [Compound 33, 1-[2-(3,5-Dimethyl-phenyl)-acetyl]-2-methyl-azetidine-2-carboxylic acid (2,4-dimethyl-benzyl)-methyl-amide]
> 1000 | > 1000 | Cc1cc(C)cc(CC(=O)N2CCC2(C)C(=O)N(C)Cc2ccc(CC(C)C)cc2)c1 (stereo not drawn) [Compound 34, 1-[2-(3,5-Dimethyl-phenyl)-acetyl]-2-methyl-azetidine-2-carboxylic acid (4-isobutyl-benzyl)-methyl-amide]
101 to 500 | 101 to 500 | CCN(Cc1ccc(Cl)cc1)C(=O)C1(C)CCN1C(=O)Cc1cc(C)cc(C)c1 (stereo not drawn) [Compound 35, 1-[2-(3,5-Dimethyl-phenyl)-acetyl]-2-methyl-azetidine-2-carboxylic acid (4-chloro-benzyl)-ethyl-amide]
